Results from paper PMC10600247, “Impact of C- and N-terminal protection on the stability, metal chelation and antimicrobial properties of calcitermin” (Scientific Reports, 2023).
Values joined by “and” are separate entries in the source; they are usually repeats but may differ in a detail not shown here. Equal values may be shown once.

Columns and labels:
C. albicans (ATCC 10231) = assay: In vitro antifungal CFU assay; type: cell-based, Candida albicans; details: pH 5.4
Description: (§1) All microbes were grown at 37 °C in Tryptic Soy Broth (TSB; Biolife, Milan, Italy) or Tryptic Soy Agar plates (TSA, Biolife, Milan, Italy). Peptides were tested at a final concentration C = 0.128, 0.064, 0.032 mg/mL, in the presence or absence of ZnCl2 or CuCl2, at a M:L molar ratio 0.9:1. Briefly, all the microbes were expanded in TSB at 37 °C under agitation for 12 h and then sub-cultured by 1:10 dilution in TSB under the same conditions until reaching OD600nm = 0.3–0.4, as measured by spectrophotometric reading using a GENESYS 10S UV–Vis spectrophotometer (Thermo Scientific, Milan, Italy), corresponding to 0.9–1.2 × 10^7 colony forming units (CFU) per mL, 1.5–2 × 10^8 CFU/mL and 2.4–3.2 × 10^8 CFU/mL, for C. albicans, S. aureus and E. coli respectively. The cultures were then centrifuged at 4500 rpm for 10 min in a SL 8 centrifuge (TX-150 Rotor) (Thermo Scientific, Milan, Italy), and the cellular pellets were washed with PBS pH 5.4. Pelletized cultures were then suspended in 10 mL of PBS pH 5.4, then the suspensions were diluted to a final concentration of 10^4 CFU/mL. Aliquots of 100 µl (corresponding to 10^3 CFU) were seeded in each well of a 96-wells plate. 3 µl of TSB at pH 5.4 were added to each well to obtain a final 1.5% TSB concentration in the culture medium. Peptides were serially diluted in PBS pH 5.4 to C = 0.257, 0.128, and 0.064 mg/mL. ZnCl2 and CuCl2 solutions were added where requested to obtain a M:L ratio 0.9:1. 100 µl of the prepared peptides ± ZnCl2/CuCl2 solutions were then added to each well, obtaining the final 0.128, 0.064 and 0.032 mg/mL peptide concentrations in a total 0.2 mL volume. PBS alone and PBS + ZnCl2/CuCl2 solutions were included as controls. The plates were incubated at 37 °C on a platform rocker with slow stirring for 3 and 24 h. At the end of the incubation times, 100 µl aliquots were taken from each sample and diluted in PBS pH 5.4 to be seeded on TSA plates. Specifically, aliquots were diluted 1:10 at 3 h, and 1:200, 1:100,000 and 1:10 at 24 h, for C. albicans, E. coli, and S. aureus respectively. After incubation for 24 h at 37 °C, grown CFUs were enumerated. Samples were assayed in triplicate in two independent experiments. Student’s t-test was used for the evaluation of significance in biological tests; a p value ≤ 0.05 was considered significant.

E. coli (ATCC 25922) = assay: In vitro anti-E. coli CFU assay; type: cell-based, Escherichia coli; details: pH 5.4; for CFU decrease/increase with respect to untreated controls / mean CFU number ± S.D.: metal salt alone, one value per peptide panel
Description: as §1

S. aureus (ATCC 25293) = assay: In vitro anti-S. aureus CFU assay; type: cell-based, Staphylococcus aureus; details: 3 h, pH 5.4; for mean CFU number ± S.D.: metal salt alone, one value per peptide panel
Description: as §1

[1] = metal salt alone, same concentration as used with 0.032 mg/mL peptide, 24 h, one value per peptide panel
[2] = metal salt alone, same concentration as used with 0.064 mg/mL peptide, 24 h, one value per peptide panel
[3] = same concentration as used with 0.032 mg/mL peptide, 3 h
[4] = same concentration as used with 0.032 mg/mL peptide, 24 h
[5] = same concentration as used with 0.064 mg/mL peptide, 3 h
[6] = same concentration as used with 0.064 mg/mL peptide, 24 h
[7] = same concentration as used with 0.128 mg/mL peptide, 3 h
[8] = same concentration as used with 0.032 mg/mL peptide
[9] = same concentration as used with 0.064 mg/mL peptide

| Compound | mean CFU number ± S.D. (C. albicans (ATCC 10231); [1]) | CFU decrease/increase with respect to untreated controls (E. coli (ATCC 25922); [3]) | mean CFU number ± S.D. (E. coli (ATCC 25922); [3]) | mean CFU number ± S.D. (E. coli (ATCC 25922); [4]) | mean CFU number ± S.D. (E. coli (ATCC 25922); [5]) | mean CFU number ± S.D. (E. coli (ATCC 25922); [6]) | CFU decrease/increase with respect to untreated controls (E. coli (ATCC 25922); [7]) | mean CFU number ± S.D. (E. coli (ATCC 25922); [7]) | mean CFU number ± S.D. (S. aureus (ATCC 25293); [8]) | mean CFU number ± S.D. (S. aureus (ATCC 25293); [9]) | further results |
| --- | --- | --- | --- | --- | --- | --- | --- | --- | --- | --- | --- |
| [Cl-].[Cl-].[Zn+2] [ZnCl2, reference compound] | 1,915 ± 234 CFU and 1,797 ± 162 CFU and 2,249 ± 145 CFU and 1,413.7 ± 348 CFU | -47% and -45% | 449 ± 74 CFU and 559 ± 25 CFU | 170 ± 14 CFU and 238 ± 16 CFU | 249 ± 11 CFU and 329 ± 11 CFU | 163 ± 47 CFU and 235 ± 6 CFU | -95% and -91% | 49 ± 8 CFU and 72 ± 21 CFU | 178 ± 60 CFU and 121 ± 11 CFU and 125 ± 60 CFU | 84 ± 13 CFU and 100 ± 11 CFU | CFU number reduction by the metal salt alone, over all performed assays (C. albicans (ATCC 10231); 3 h): up to 64.9%; CFU number reduction by the metal salt alone, over all performed assays (C. albicans (ATCC 10231); 24 h): ≤ 94%; mean CFU number ± S.D. (C. albicans (ATCC 10231); metal salt alone, same concentration as used with 0.032 mg/mL peptide, 3 h, one value per peptide panel): 94.2 ± 23 CFU and 91 ± 25 CFU and 107 ± 13 CFU; mean CFU number ± S.D. (C. albicans (ATCC 10231); metal salt alone, same concentration as used with 0.064 mg/mL peptide, 3 h, one value per peptide panel): 49 ± 2 CFU and 87 ± 6 CFU and 75.33 ± 25 CFU and 98 ± 15 CFU; CFU decrease/increase with respect to untreated controls (C. albicans (ATCC 10231); [2]): -36% and -40% and -38%; mean CFU number ± S.D. (C. albicans (ATCC 10231); metal salt alone, same concentration as used with 0.128 mg/mL peptide, 3 h, one value per peptide panel): 32 ± 9 CFU and 62 ± 6 CFU and 53 ± 14 CFU and 34.7 ± 9 CFU; CFU decrease/increase with respect to untreated controls (E. coli (ATCC 25922); [4]): -1%; CFU decrease/increase with respect to untreated controls (E. coli (ATCC 25922); [6]): -3% and -5%; mean CFU number ± S.D. (E. coli (ATCC 25922); same concentration as used with 0.128 mg/mL peptide, 24 h): 168 ± 22 CFU; CFU reduction by the metal salt alone compared to controls, over all performed assays (S. aureus (ATCC 25293)): up to 77% |
| [Cl][Cu][Cl] [CuCl2, reference compound] | 2,184 ± 195 CFU and 1,671 ± 25 CFU and 2,558 ± 367 CFU and 1,800 ± 195 CFU | -36% and -42% | 474 ± 91 CFU and 665 ± 96 CFU | 160 ± 42 CFU and 256 ± 3 CFU | 255 ± 23 CFU and 383 ± 82 CFU | 93 ± 28 CFU and 47 ± 28 CFU | -95% and -92% | 57 ± 4 CFU and 64 ± 24 CFU | 201 ± 25 CFU and 178 ± 2 CFU | 170 ±17 CFU and 188 ± 62 CFU | mean CFU number ± S.D. (C. albicans (ATCC 10231); [2]): 2,152 ± 228 CFU and 1,697 ± 81 CFU and 2,456 ± 236 CFU and 1,820 ± 125 CFU; mean CFU number ± S.D. (C. albicans (ATCC 10231); metal salt alone, same concentration as used with 0.128 mg/mL peptide, 24 h, one value per peptide panel): 1,816 ± 109 CFU and 2,139 ± 55 CFU and 1,360 ± 68 CFU and 1,946 ± 96 CFU; CFU number reduction by the metal salt alone, over all performed assays (E. coli (ATCC 25922); 3 h): up to 96%; CFU number reduction by the metal salt alone, over all performed assays (E. coli (ATCC 25922); 24 h): up to 96%; mean CFU number ± S.D. (S. aureus (ATCC 25293); same concentration as used with 0.128 mg/mL peptide): 201 ± 23 CFU and 159 ± 22 CFU |
